According to patent US12024500B2, “Five-membered ring-substituted pyridazinol compounds and derivatives, preparation methods, herbicidal compositions and applications thereof” (Qingdao Kingagroot Chemical Compound Co., Ltd., priority 2018, dated 2024):

Columns and labels:
Assay type in all cases: in vivo
Digitaria sanguinalis = test: Post-emergence weed control test (comparative experiment); conditions: 300 g/ha, 3 weeks after spraying
Description: (§1) The activity level standard of harmful plant destruction (i.e. growth inhibition rate) is as follows: • Level 10: completely dead; • Level 9: above 90% growth inhibition rate; • Level 8: above 80% growth inhibition rate; • Level 7: above 70% growth inhibition rate; • Level 6: above 60% growth inhibition rate; • Level 5: above 50% growth inhibition rate; • Level 4: above 40% growth inhibition rate; • Level 3: above 30% growth inhibition rate; • Level 2: above 20% growth inhibition rate; • Level 1: below 20% growth inhibition rate; • Level 0: no effect.
(§2) The above described growth inhibition rates are fresh weight inhibition rates.
(§3) Experiment of post-emergence test: monocotyledonous and dicotyledonous weed seeds as well as main crop seeds (i.e., wheat, corn, rice, soybean, cotton, oilseed rape, millet and sorghum) were put into a plastic pot loaded with soil, then covered with 0.5-2 cm of soil, and the seeds were allowed to grow in good greenhouse environment. The test plants were treated at 4-5 leaf stage 2-3 weeks after sowing. The test compounds of the invention were dissolved in acetone respectively, then added with Tween-80 and diluted by a certain amount of water to give solutions with certain concentrations. The solution was sprayed to the plants with a sprayer. The plants were cultured for 3 weeks in the greenhouse.

Echinochloa crus-galli = test: as above; conditions: 300 g/ha, 3 weeks after spraying
Description: as §1, §2, §3

Setaria viridis = test: Post-emergence weed control test (greenhouse pot, spray); conditions: 3 weeks after spraying; for weed control effect (activity level), Setaria viridis, comparison experiment: 300 g/ha; for inhibition at 2000 g/ha: Setaria viridis, 504 h, read-out: weed control effect (activity level, fresh weight growth inhibition rate), Setaria viridis
Description: as §1, §2, §3

Rorippa indica = test: as above; conditions: 3 weeks after spraying; for weed control effect (activity level), Rorippa indica, comparison experiment: 300 g/ha
Description: as §1, §2, §3

Veronica polita = test: as above; conditions: 3 weeks after spraying; for weed control effect (activity level), Veronica polita, comparison experiment: 300 g/ha
Description: as §1, §2, §3

Chenopodiaceae = test: as above; conditions: 3 weeks after spraying
Description: as §1, §2, §3

Amaranthus retroflexus = test: as above; conditions: 3 weeks after spraying
Description: as §1, §2, §3

[1] = 504 h, read-out: weed control effect (activity level, fresh weight growth inhibition rate), Chenopodiaceae
[2] = Amaranthus retroflexus, 504 h, read-out: weed control effect (activity level, fresh weight growth inhibition rate), Amaranthus retroflexus
[3] = Veronica polita, 504 h, read-out: weed control effect (activity level, fresh weight growth inhibition rate), Veronica polita

Oc1cc(Cl)nnc1-c1ccccc1 [Control Compound A, reference compound]
weed control effect (activity level), Digitaria sanguinalis, comparison experiment (Digitaria sanguinalis): 0 | weed control effect (activity level), Echinochloa crus-galli, comparison experiment (Echinochloa crus-galli): 0 | weed control effect (activity level), Setaria viridis, comparison experiment (Setaria viridis): 2 (Level 2: above 20% growth inhibition rate) | weed control effect (activity level), Rorippa indica, comparison experiment (Rorippa indica): 2 (Level 2: above 20% growth inhibition rate) | weed control effect (activity level), Veronica polita, comparison experiment (Veronica polita): 5 (Level 5: above 50% growth inhibition rate)

Cc1cc(-c2nnc(Cl)cc2OC(=O)N2CCOCC2)n(C)n1 [Compound 1-9]
inhibition at 2000 g/ha (Setaria viridis): 100% | inhibition at 2000 g/ha (Chenopodiaceae; [1]): 100% | inhibition at 2000 g/ha (Amaranthus retroflexus; [2]): 100% | inhibition at 2000 g/ha (Veronica polita; [3]): 100%

CCSC(=O)Oc1cc(Cl)nnc1-c1cc(C)nn1C [Compound 1-8]
inhibition at 2000 g/ha (Setaria viridis): 100% | inhibition at 2000 g/ha (Chenopodiaceae; [1]): 100% | inhibition at 2000 g/ha (Amaranthus retroflexus; [2]): 100% | inhibition at 2000 g/ha (Veronica polita; [3]): 100%

CCCCCCCCSC(=O)Oc1cc(Cl)nnc1-c1ccccc1 [Control Compound B, reference compound]
weed control effect (activity level), Digitaria sanguinalis, comparison experiment (Digitaria sanguinalis): 0 | weed control effect (activity level), Echinochloa crus-galli, comparison experiment (Echinochloa crus-galli): 0 | weed control effect (activity level), Setaria viridis, comparison experiment (Setaria viridis): 2 (Level 2: above 20% growth inhibition rate) | weed control effect (activity level), Rorippa indica, comparison experiment (Rorippa indica): 3 (Level 3: above 30% growth inhibition rate) | weed control effect (activity level), Veronica polita, comparison experiment (Veronica polita): 5 (Level 5: above 50% growth inhibition rate)

CCCCCOC(=O)Oc1cc(Cl)nnc1-c1cc(C)nn1C [Compound 1-1]
weed control effect (activity level), Digitaria sanguinalis, comparison experiment (Digitaria sanguinalis): 8 (Level 8: above 80% growth inhibition rate) | weed control effect (activity level), Echinochloa crus-galli, comparison experiment (Echinochloa crus-galli): 8 (Level 8: above 80% growth inhibition rate) | weed control effect (activity level), Setaria viridis, comparison experiment (Setaria viridis): 10 | inhibition at 2000 g/ha (Setaria viridis): 100% | weed control effect (activity level), Rorippa indica, comparison experiment (Rorippa indica): 10 | inhibition at 2000 g/ha (Chenopodiaceae; [1]): 100% | inhibition at 2000 g/ha (Amaranthus retroflexus; [2]): 100% | weed control effect (activity level), Veronica polita, comparison experiment (Veronica polita): 10 | inhibition at 2000 g/ha (Veronica polita; [3]): 100%

Cc1cc(-c2nnc(Cl)cc2O)n(C)n1 [Compound 1]
weed control effect (activity level), Digitaria sanguinalis, comparison experiment (Digitaria sanguinalis): 7 (Level 7: above 70% growth inhibition rate) | weed control effect (activity level), Echinochloa crus-galli, comparison experiment (Echinochloa crus-galli): 8 (Level 8: above 80% growth inhibition rate) | weed control effect (activity level), Setaria viridis, comparison experiment (Setaria viridis): 10 | weed control effect (activity level), Rorippa indica, comparison experiment (Rorippa indica): 10 | inhibition at 3000 g/ha (Rorippa indica; Rorippa indica, 504 h, 3000 g/ha, read-out: weed control effect (activity level, fresh weight growth inhibition rate), Rorippa indica): 100% | inhibition at 3000 g/ha (Chenopodiaceae; 504 h, 3000 g/ha, read-out: weed control effect (activity level, fresh weight growth inhibition rate), Chenopodiaceae): 100% | inhibition at 3000 g/ha (Amaranthus retroflexus; Amaranthus retroflexus, 504 h, 3000 g/ha, read-out: weed control effect (activity level, fresh weight growth inhibition rate), Amaranthus retroflexus): 100% | weed control effect (activity level), Veronica polita, comparison experiment (Veronica polita): 10 | inhibition at 3000 g/ha (Veronica polita; Veronica polita, 504 h, 3000 g/ha, read-out: weed control effect (activity level, fresh weight growth inhibition rate), Veronica polita): 100%

Cn1nccc1-c1nnc(Cl)cc1O [Compound 29]
weed control effect (activity level), Digitaria sanguinalis, comparison experiment (Digitaria sanguinalis): 6 (Level 6: above 60% growth inhibition rate) | weed control effect (activity level), Echinochloa crus-galli, comparison experiment (Echinochloa crus-galli): 8 (Level 8: above 80% growth inhibition rate) | weed control effect (activity level), Setaria viridis, comparison experiment (Setaria viridis): 10 | weed control effect (activity level), Rorippa indica, comparison experiment (Rorippa indica): 10 | weed control effect (activity level, fresh weight growth inhibition rate), Rorippa indica (Rorippa indica; 3000 g/ha): 10 (Level 10: completely dead) | weed control effect (activity level, fresh weight growth inhibition rate), Chenopodiaceae (Chenopodiaceae; 3000 g/ha): 10 (Level 10: completely dead) | weed control effect (activity level, fresh weight growth inhibition rate), Amaranthus retroflexus (Amaranthus retroflexus; 3000 g/ha): 10 (Level 10: completely dead) | weed control effect (activity level), Veronica polita, comparison experiment (Veronica polita): 9 (Level 9: above 90% growth inhibition rate) | weed control effect (activity level, fresh weight growth inhibition rate), Veronica polita (Veronica polita; 3000 g/ha): 10 (Level 10: completely dead)

Cc1cc(-c2nnc(Cl)cc2OC(C)OC(=O)OC(C)C)n(C)n1 (stereo not shown) [Compound 1-6]
inhibition at 2000 g/ha (Setaria viridis): 100% | inhibition at 2000 g/ha (Chenopodiaceae; [1]): 100% | inhibition at 2000 g/ha (Amaranthus retroflexus; [2]): 100% | inhibition at 2000 g/ha (Veronica polita; [3]): 100%

Cc1cc(-c2nnc(Cl)cc2OC(=S)Oc2cccs2)n(C)n1 [Compound 1-5]
inhibition at 2000 g/ha (Setaria viridis): 100% | inhibition at 2000 g/ha (Chenopodiaceae; [1]): 100% | inhibition at 2000 g/ha (Amaranthus retroflexus; [2]): 100% | inhibition at 2000 g/ha (Veronica polita; [3]): 100%

Cn1nc(C(F)F)cc1-c1nnc(Cl)cc1O [Compound 74]
weed control effect (activity level, fresh weight growth inhibition rate), Rorippa indica (Rorippa indica; 3000 g/ha): 10 (Level 10: completely dead) | weed control effect (activity level, fresh weight growth inhibition rate), Chenopodiaceae (Chenopodiaceae; 3000 g/ha): 10 (Level 10: completely dead) | weed control effect (activity level, fresh weight growth inhibition rate), Amaranthus retroflexus (Amaranthus retroflexus; 3000 g/ha): 10 (Level 10: completely dead) | weed control effect (activity level, fresh weight growth inhibition rate), Veronica polita (Veronica polita; 3000 g/ha): 10 (Level 10: completely dead)

Cn1nc(-c2ccccc2)cc1-c1nnc(Cl)cc1O [Compound 73]
weed control effect (activity level, fresh weight growth inhibition rate), Rorippa indica (Rorippa indica; 3000 g/ha): 10 (Level 10: completely dead) | weed control effect (activity level, fresh weight growth inhibition rate), Chenopodiaceae (Chenopodiaceae; 3000 g/ha): 10 (Level 10: completely dead) | weed control effect (activity level, fresh weight growth inhibition rate), Amaranthus retroflexus (Amaranthus retroflexus; 3000 g/ha): 10 (Level 10: completely dead) | weed control effect (activity level, fresh weight growth inhibition rate), Veronica polita (Veronica polita; 3000 g/ha): 10 (Level 10: completely dead)
